Patent US4250094A, “1-(Aminoalkyl) substituted-6-phenyl-4H-s-triazolo[4,3-a][1,4]benzodiazepines” (priority 1979, dated 1981)
“Also recorded” adds a separate entry of the source. Counter-ions that a name gives are not always drawn.

What was measured:
[1] = system: oxotremorine; type: in vivo, mice; conditions: Table VII
Method: The present compounds were tested as follows. […] The lowering of the body temperature was measured rectally with an electronic thermometer, before and 30 minutes after drug administration. After the drug administration the mice were kept at 19° C. in cages. A four degree difference between the control mice (oxotremorine alone) and the treated mice (oxotremorine and test compound) was used to indicate the antagonistic action of the test compound.

[2] = system: yohimbine; type: in vivo, mice; conditions: Table VII
Method: Ten male CF mice, 18-22 g., were injected with the anti-depressant and 30 minutes later with 30 mg. of yohimbine hydrochloride (YCl) in saline solution. After two hours, the LD50 are determined.

[3] = system: apomorphine; conditions: Table VII
[4] = system: oxotremorine; assay: Hypothermic tests with oxotremorine: body temperature change; type: in vivo, mice; conditions: for Body Temperature °F. Change From Vehicle Control After 15 Minutes / Body Temperature °F. Change From Vehicle Control After 30 Minutes / Body Temperature °F. Change From Vehicle Control After 60 Minutes / Body Temperature °F. Change From Vehicle Control After 90 Minutes: ip, 0.5 h; for antagonism of oxotremorine temperature decrease: oxotremorine 0.6 mg./kg., in words
Source text: Hypothermic tests with oxotermorine: [1-(4-pyrrolidino-2-butynyl)-2-pyrrolidinone].

[5] = system: oxotremorine; conditions: in words, cited from earlier work; for block of oxotremorine hypothermic response: mice
[6] = system: nicotine; conditions: control (untreated) mice, nicotine salicylate 2 mg./kg.
[7] = system: strychnine; type: in vivo; conditions: 3 mg./kg. intraperitoneally
Method: The test consists in orally administering into groups of 6 mice the test compound, and 30 minutes later 3 mg./kg. strychnine sulfate intraperitoneally. The survivors after 4 hours reflect the activity of the compound as a muscle relaxant and antispasmodic.

[8] = Lethality of yohimbine hydrochloride alone; type: in vivo; conditions: mice, 30 mg./kg., in words
Method: After two hours, the LD50 are determined.

Structure (SMILES): NCc1nnc2n1-c1ccc(Cl)cc1C(c1ccccc1)=NC2 [1-(Aminomethyl)-8-chloro-6-phenyl-4H-s-triazolo[4,3-a][1,4]benzodiazepine]
- Oxo (oxotremorine test) [1]: 29.7
- YO (Yohimbine test) [2]: 35.4

Structure (SMILES): CN(C)Cc1nnc2n1-c1ccc(Cl)cc1C(c1ccccc1Cl)=NC2 [8-Chloro-1-[(dimethylamino)methyl]-6-(o-chlorophenyl)-4H-s-triazolo[4,3-a][1,4]benzodiazepine]
- Ap (Apomorphine test) [3]: 17.8

Structure (SMILES): CN(C)CCC=C1c2ccccc2CCc2ccccc21 [Amitriptyline]
- Body Temperature °F. Change From Vehicle Control After 15 Minutes ([4]; 25 mg/kg): +0.7 °F.
- Body Temperature °F. Change From Vehicle Control After 30 Minutes ([4]; 25 mg/kg): - 2.4 °F.
- Body Temperature °F. Change From Vehicle Control After 60 Minutes ([4]; 25 mg/kg): - 5.4 °F.
- Body Temperature °F. Change From Vehicle Control After 90 Minutes ([4]; 25 mg/kg): - 6.8 °F.

Structure (SMILES): CC(N)Cc1ccccc1 (stereo not shown) [Amphetamine]
- Body Temperature °F. Change From Vehicle Control After 15 Minutes ([4]; 5 mg/kg): -1.5 °F.
- Body Temperature °F. Change From Vehicle Control After 30 Minutes ([4]; 5 mg/kg): - 4.3 °F.
- Body Temperature °F. Change From Vehicle Control After 60 Minutes ([4]; 5 mg/kg): - 4.4 °F.
- Body Temperature °F. Change From Vehicle Control After 90 Minutes ([4]; 5 mg/kg): - 2.2 °F.

Structure (SMILES): CN1[C@@H]2CC[C@H]1C[C@@H](OC(=O)C(CO)c1ccccc1)C2 (stereo partly shown) [Atropine]
- block of oxotremorine hypothermic response [5]: blocked

Structure (SMILES): CNCCCN1c2ccccc2CCc2ccccc21 [Desipramine]
- Body Temperature °F. Change From Vehicle Control After 15 Minutes ([4]; 25 mg/kg): -3.5 °F.
- Body Temperature °F. Change From Vehicle Control After 30 Minutes ([4]; 25 mg/kg): - 3.5 °F.
- Body Temperature °F. Change From Vehicle Control After 60 Minutes ([4]; 25 mg/kg): - 4.1 °F.
- Body Temperature °F. Change From Vehicle Control After 90 Minutes ([4]; 25 mg/kg): - 3.6 °F.
- antagonism of oxotremorine temperature decrease ([4]; mice): antagonized

Structure (SMILES): CN(C)CCC=C1c2ccccc2COc2ccccc21 [Doxepine]
- Body Temperature °F. Change From Vehicle Control After 15 Minutes ([4]; 25 mg/kg): -2.3 °F.
- Body Temperature °F. Change From Vehicle Control After 30 Minutes ([4]; 25 mg/kg): - 7.1 °F.
- Body Temperature °F. Change From Vehicle Control After 60 Minutes ([4]; 25 mg/kg): -11.0 °F.
- Body Temperature °F. Change From Vehicle Control After 90 Minutes ([4]; 25 mg/kg): -12.3 °F.
- antagonism of oxotremorine temperature decrease ([4]; mice): antagonized

Structure (SMILES): CN(C)CCCN1c2ccccc2CCc2ccccc21 [Imipramine]
- Body Temperature °F. Change From Vehicle Control After 15 Minutes ([4]; 25 mg/kg): -0.4 °F.
- Body Temperature °F. Change From Vehicle Control After 30 Minutes ([4]; 25 mg/kg): - 3.3 °F.
- Body Temperature °F. Change From Vehicle Control After 60 Minutes ([4]; 25 mg/kg): - 5.6 °F.
- Body Temperature °F. Change From Vehicle Control After 90 Minutes ([4]; 25 mg/kg): - 6.4 °F.
- antagonism of oxotremorine temperature decrease ([4]; mice): antagonized
- block of oxotremorine hypothermic response [5]: blocked

Structure (SMILES): O=C1CCCN1CC#CCN1CCCC1 [Oxotremorine, 1-(4-pyrrolidino-2-butynyl)-2-pyrrolidinone]
- decrease of body temperature of a mouse ([4]; 0.6 mg./kg., mouse kept at room temperature): about 13 ° F.
- time of peak hypothermia after administration ([4]; mice): 60 min
- hypothermic response in mice [5]: produces hypothermic responses in mice

Structure (SMILES): CN1CCc2cccc3c2[C@H]1Cc1ccc(O)c(O)c1-3 [apomorphine]
- hypothermic response in mice [5]: produces hypothermic responses in mice

Structure (SMILES): CN1CCC[C@H]1c1cccnc1 [nicotine salicylate]
- effect of nicotine salicylate in control mice [6]: running convulsions followed by (2) tonic extensor fits; followed by (3) death

Structure (SMILES): O=C1C[C@@H]2OCC=C3CN4CC[C@]56c7ccccc7N1[C@H]5[C@H]2[C@H]3C[C@H]46 [strychnine sulfate]
- lethality of strychnine sulfate in control mice [7]: routinely fatal to all the control mice

Structure (SMILES): COc1cc2c(cc1OC)C1CC(=O)C(CC(C)C)CN1CC2 (stereo not shown) [tetrabenazine]
- hypothermic response in mice [5]: produces hypothermic responses in mice

Structure (SMILES): COC(=O)[C@@H]1[C@H]2C[C@H]3c4[nH]c5ccccc5c4CCN3C[C@@H]2CC[C@@H]1O [yohimbine hydrochloride]
- lethality of yohimbine hydrochloride alone [8]: non-lethal
- lethality of yohimbine hydrochloride alone ([8]; listed as YCl): no death; also recorded: No mice or only one mouse is killed
